# Entries after “also recorded” stand apart in the source; their conditions may differ.
# Key:
# [1] = test system: homozygous mutant dopamine transporter knockout (KO) mice; test: Spontaneous activity in the open field, dopamine transporter KO mice; type: in vivo
# Protocol: Male and female wild-type and homozygous mutant dopamine transporter KO mice (n˜10 mice/genotype/agent; produced by in vivo homologous recombination and bred at Duke University Medical Center, Durham, N.C.) were tested for spontaneous activity in the open field following a single injection of the vehicle or compound. […] All drugs were given in a volume of 5 mL/kg. Animals were returned to the open field for an additional 90 min. Spontaneous activity was evaluated in an automated Omnitech Digiscan apparatus (Accuscan Instruments, Columbus, Ohio). Activity was summated at 5 min intervals over the 2 h period of testing. Horizontal activity or locomotion was measured in terms of the total distance covered in cm, vertical activity or rearing was expressed in terms of the total numbers of vertical beam breaks, and stereotypy was quantified in terms of repetitive breaks of a given beam or beams with intervals of less than 1 sec. For the analyses, 10 WT and 10 KO mice were run in each of the treatment groups with approximately equal numbers of males and females assigned to each group. Data were analyzed by the Statistical Package for Social Sciences programs (version 11.0 for Windows; SPSS Science, Chicago, Ill.). The results for each dependent variable were analyzed by repeated analyses of variance (RMANOVA) for within subjects effects (group differences over time) and between-subjects effects (tests of main effects and interactions). Bonferroni corrected pair-wise comparisons were used as the post-hoc tests. A p<0.05 was considered significant.
# [2] = test system: wild-type mice; test: Spontaneous activity in the open field, wild-type mice; type: in vivo; conditions: WT mice; 2 mg/kg SC
# Protocol: Male and female wild-type and homozygous mutant dopamine transporter KO mice (n˜10 mice/genotype/agent; produced by in vivo homologous recombination and bred at Duke University Medical Center, Durham, N.C.) were tested for spontaneous activity in the open field following a single injection of the vehicle or compound. Mice were placed into the open field for 30 min and administered SC the vehicle (sterile water), 2 mg/kg amphetamine, or three concentrations of the test compound (10, 30, 100 mg/kg). All drugs were given in a volume of 5 mL/kg. Animals were returned to the open field for an additional 90 min. Spontaneous activity was evaluated in an automated Omnitech Digiscan apparatus (Accuscan Instruments, Columbus, Ohio). […] Horizontal activity or locomotion was measured in terms of the total distance covered in cm, vertical activity or rearing was expressed in terms of the total numbers of vertical beam breaks, and stereotypy was quantified in terms of repetitive breaks of a given beam or beams with intervals of less than 1 sec. […] Data were analyzed by the Statistical Package for Social Sciences programs (version 11.0 for Windows; SPSS Science, Chicago, Ill.). The results for each dependent variable were analyzed by repeated analyses of variance (RMANOVA) for within subjects effects (group differences over time) and between-subjects effects (tests of main effects and interactions). […]
# [3] = target: T1, hNET (human norepinephrine transporter) (Homo sapiens, UniProt P23975); test: biochemical; type: binding; conditions: HEK-hNET cells, mean ± SEM
# T1 construct: expressed in transfected cells; host or cells: HEK293 cells (ATCC), clonal, kept under geneticin selection
# [4] = target: T2, hDAT (human dopamine transporter) (Homo sapiens, UniProt Q01959); test: Inhibition of [125I]RTI-55 radioligand binding to hDAT in HEK293 cell membranes
# T2 construct: expressed in transfected cells; host or cells: HEK293 cells (ATCC), clonal, kept under puromycin selection
# [5] = target: T2, hDAT (human dopamine transporter); test: Filtration assay for inhibition of [3H]dopamine uptake in HEK-hDAT cells; type: cell-based
# [6] = test system: rats with sciatic nerve ligation; test: Thermal hyperalgesia (hindpaw withdrawal latency, plantar tester) in rats with sciatic nerve ligation; type: in vivo, Sprague-Dawley rats; conditions: 30 mg/kg IP; for Mean paw withdrawal latency: n = 6, mean ± SEM
# Protocol: Young adult male Sprague-Dawley rats (CD(SD)IGS, 150-200 g) were initially anesthetized with isoflurane in O2 by a mask and the surgical procedure was performed according to the method described by Bennett and Xie (1988). Briefly, the right sciatic nerves were loosely tied using ligatures. All experiments were conducted in accordance with the guidelines of the International Association for the Study of Pain. The behavioral tests were conducted at least 14 days postoperatively.
# The test compound was dissolved in saline and administered intraperitoneally at 30 mg/kg to animals in a volume of 3 mL/kg body weight.
# To test for thermal hyperalgesia, the thermal response was determined by the hindpaw withdrawal latency, using a plantar tester (UGO BASILE, Italy), and a modified method of Hargreaves et al. (1988). Rats were allowed to acclimate within plastic enclosures on a clear glass plate maintained at room temperature. A radiant heat source (intensity 90) was controlled with a timer and focused onto the plantar surface of the rat right hind paw encompassing the glabrous skin. Paw withdrawal stopped both heat source and timer. A maximal cut-off 30 sec was used to prevent tissue damage. Rats were assessed for thermal hyperalgesia predose (0 hr) and at 1, 4 and 8 hours after 30 mg/kg test compound administration.
# Data are expressed as mean±standard error of mean (SEM). The values of behavioral signs of neuropathic pain at various postoperative time points were compared with those of the preoperative control period by a repeated-measure One-way Analysis of Variance (followed by Dunnett's post-hoc test). P-values less than 0.05 were considered to be significant.
# [7] = target: T1, hNET (human norepinephrine transporter); test: cell-based; conditions: HEK-hNET cells; mean ± SEM; read-out: [3H]NE Uptake IC50
# [8] = test system: littermate wild-type mice; test: Sleep parameters (EEG/EMG) in littermate wild-type mice; type: in vivo; conditions: for Duration of continuous wakefulness: resting period (ZT 2)
# Source text: (§1) The polygraph signal (EEG (electroencephalography) and EMG (electromyography)) was captured with SleepSign (Kissei Comtech), and the sleep stage was visually scored with 10 sec epoch for wakefulness, non-REM sleep and REM sleep. Scoring criteria are: Wakefulness is characterized by desynchronized low-amplitude, mixed frequency (>4 Hz) EEG and high EMG activity. Rhythmic alpha (8-9 Hz) wave (with high EMG activities) may also appear. Non-REM is characterized by synchronized, high-amplitude, low-frequency (0.25-4 Hz) with reduced EMG activity (compared to wakefulness). EEG activity in REM sleep is similar to that in wakefulness, with desynchronized, mixed frequency low amplitude waves. Rhythmic alpha (8-9 Hz) wave with reduced EMG activities may also appear. […] activity during REM sleep is reduced even further and in many cases, completely absent. Some muscle twitching may be apparent in the EMG trace during REM sleep.
# (§2) Three drug doses of the test compound (50, 100 and 150 mg/kg PO) plus vehicle, was orally administered at ZT 2 (Zeitgeber time: 2 hours after light on) or ZT14 (Zeitgeber time: 2 hours after light off) and the effects on sleep was monitored for 6 hours after the drug administration (the sleep data was collected for 30 hours after the drug injection, and are available for further analysis). The doses for modafinil were 50 and 200 mg/kg PO (plus vehicle), and modafinil was also administered at ZT 2 and ZT 14.
# (§3) If the polygraph signals of some mice were not sufficient to score the sleep stage with accuracy (especially bad EMG), data from these animals were excluded, and the minimum of 5 animals (except for the highest dose of the test compound in wild-type mice in dark period, n=4) were included for the data analysis and number of animals were indicated in the figures.
# (§4) Effects of test compound and modafinil on the amount of wake, non-REM sleep, REM sleep (cumulative seconds), number of episodes for each sleep stage during 6 hours, mean wake/sleep-bout lengths (seconds) were analyzed in each animal and the mean of each parameter was calculated in each genotype. The effects of compounds on wake and sleep amounts are useful to evaluate the wake promoting potency, and the number of episodes for each sleep stage and the mean wake/sleep bout length are parameters for evaluating the sleep fragmentation. Amphetamine and modafinil, two main wake-promoting compounds currently used for the treatment of EDS associated with various etiologies (narcolepsy, idiopathic hypersomnia and secondary EDS), are known to increase wake time and prolong wake bout length in normal and EDS conditions.
# (§5) A comparison of the effects between hypocretin deficient and wild-type mice is very useful in determining if the wake-promotion of the test compound is dependent on the availability of hypocretins, and if there is a possible change in the sensitivity of the receptive mechanisms of test compound in narcoleptic mice due to the hypocretin ligand deficiency.
# [9] = test system: hypocretin cell ablated narcoleptic mice (prepororexin/ataxin-3 transgenic); test: Sleep parameters (EEG/EMG) in narcoleptic mice; type: in vivo; conditions: for Duration of continuous wakefulness: resting period (ZT 2)
# Source text: as §1, §2, §3, §4, §5
# [10] = target: T3, hSERT (human serotonin transporter) (Homo sapiens, UniProt P31645); test: Inhibition of [125I]RTI-55 radioligand binding to hSERT in HEK293 cell membranes
# T3 construct: expressed in transfected cells; host or cells: HEK293 cells (ATCC), clonal, kept under puromycin selection
# [11] = resting period, PO, genotypes not separated
# T2 sequence (Q01959 whole entry): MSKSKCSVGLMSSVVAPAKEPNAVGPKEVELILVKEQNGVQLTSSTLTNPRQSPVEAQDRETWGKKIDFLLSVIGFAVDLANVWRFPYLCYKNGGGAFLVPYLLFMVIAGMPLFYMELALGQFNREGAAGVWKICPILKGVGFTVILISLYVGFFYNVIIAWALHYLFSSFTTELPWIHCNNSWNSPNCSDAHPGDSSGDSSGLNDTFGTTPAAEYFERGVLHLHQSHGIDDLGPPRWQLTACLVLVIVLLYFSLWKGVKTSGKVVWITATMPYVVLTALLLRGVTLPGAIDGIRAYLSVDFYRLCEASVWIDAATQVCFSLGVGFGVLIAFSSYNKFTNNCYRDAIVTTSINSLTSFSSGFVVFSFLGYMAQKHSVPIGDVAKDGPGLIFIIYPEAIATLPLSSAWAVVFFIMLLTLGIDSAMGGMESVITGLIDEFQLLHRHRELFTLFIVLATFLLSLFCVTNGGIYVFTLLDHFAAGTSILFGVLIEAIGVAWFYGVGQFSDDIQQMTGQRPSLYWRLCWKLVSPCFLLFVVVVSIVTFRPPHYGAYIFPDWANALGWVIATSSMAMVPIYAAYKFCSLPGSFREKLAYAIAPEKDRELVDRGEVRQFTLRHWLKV
# T1 sequence (P23975 whole entry): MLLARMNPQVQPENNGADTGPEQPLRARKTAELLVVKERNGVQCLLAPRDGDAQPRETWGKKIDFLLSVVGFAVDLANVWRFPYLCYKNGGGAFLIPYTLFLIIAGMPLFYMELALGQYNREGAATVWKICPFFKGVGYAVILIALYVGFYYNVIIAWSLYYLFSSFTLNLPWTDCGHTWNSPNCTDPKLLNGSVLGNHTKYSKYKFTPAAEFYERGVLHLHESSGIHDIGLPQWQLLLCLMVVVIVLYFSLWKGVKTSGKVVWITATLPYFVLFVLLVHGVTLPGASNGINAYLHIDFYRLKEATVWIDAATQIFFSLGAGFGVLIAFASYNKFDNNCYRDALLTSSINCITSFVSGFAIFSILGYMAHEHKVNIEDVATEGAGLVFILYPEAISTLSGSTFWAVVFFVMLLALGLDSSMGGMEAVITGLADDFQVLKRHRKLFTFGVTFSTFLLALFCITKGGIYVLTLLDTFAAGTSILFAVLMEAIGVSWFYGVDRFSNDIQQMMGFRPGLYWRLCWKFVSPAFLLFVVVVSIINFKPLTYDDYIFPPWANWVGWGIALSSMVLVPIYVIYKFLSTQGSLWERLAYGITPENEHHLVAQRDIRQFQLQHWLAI
# T3 sequence (P31645 whole entry): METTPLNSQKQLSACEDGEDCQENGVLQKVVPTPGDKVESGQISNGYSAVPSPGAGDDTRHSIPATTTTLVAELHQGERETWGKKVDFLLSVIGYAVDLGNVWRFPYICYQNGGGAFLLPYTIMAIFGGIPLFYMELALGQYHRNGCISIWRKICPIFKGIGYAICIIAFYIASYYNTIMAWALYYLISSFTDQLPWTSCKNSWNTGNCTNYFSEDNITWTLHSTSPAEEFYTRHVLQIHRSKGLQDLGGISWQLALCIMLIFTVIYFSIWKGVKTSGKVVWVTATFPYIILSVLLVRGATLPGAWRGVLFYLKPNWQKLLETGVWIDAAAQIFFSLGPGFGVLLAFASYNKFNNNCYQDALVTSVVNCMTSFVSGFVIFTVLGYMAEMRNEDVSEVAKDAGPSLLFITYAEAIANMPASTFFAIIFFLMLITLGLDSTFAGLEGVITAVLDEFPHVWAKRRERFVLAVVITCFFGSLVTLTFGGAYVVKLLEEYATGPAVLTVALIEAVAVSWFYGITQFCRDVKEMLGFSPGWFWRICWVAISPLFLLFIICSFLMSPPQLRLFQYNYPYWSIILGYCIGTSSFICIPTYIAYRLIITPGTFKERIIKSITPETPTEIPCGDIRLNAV
structure (smiles),measurement,setting,value
"CC(N)Cc1ccccc1 (stereo not drawn) [Amphetamine, reference compound]","Locomotor, rearing and stereotypical activities relative to vehicle controls",[1]; 2 mg/kg SC,decreased
same,"Locomotor, rearing and stereotypical activities relative to vehicle controls",[2],increased
"NC(=O)OC[C@H](N)Cc1ccccc1 [Test Compound, O-carbamoyl-(D)-phenylalaninol]",Hill coefficient,[3],−1.45 ± 0.34
same,Ki,[3]; read-out: [125I]RTI-55 Binding Ki,3.7 µM
same,Ki,[4],14.2 µM
same,Hill coefficient,"[4]; HEK-hDAT cells, mean ± SEM",−0.77 ± 0.12
same,IC50,[5],2900 nM
same,Mean paw withdrawal latency,[6]; 0 hr (predose),5.17 ± 0.27 s
same,Mean paw withdrawal latency,[6]; 1 hr post-injection,6.33 ± 0.14 s
same,Mean paw withdrawal latency,[6]; 4 hr post-injection,6.06 ± 0.21 s
same,Mean paw withdrawal latency,[6]; 8 hr post-injection,5.63 ± 0.16 s
same,% of Antagonism (latency at time point / latency at 0 hr − 1) × 100,[6]; 1 hr post-injection,(22.3%^@)
same,% of Antagonism (latency at time point / latency at 0 hr − 1) × 100,[6]; 4 hr post-injection,(17.2%)
same,% of Antagonism (latency at time point / latency at 0 hr − 1) × 100,[6]; 8 hr post-injection,(8.8%)
same,Paw withdrawal latency to a thermal stimulus (in words),[6]; vs pre-injection (0 hr),significantly increased the paw withdrawal latency
same,IC50,[7],4.4 µM
same,Duration of continuous wakefulness,[8]; 50 mg/kg PO,up to 3 hours
same,Duration of continuous wakefulness,[8]; 100 mg/kg PO,≤ 4 h
same,Duration of continuous wakefulness,[8]; 150 mg/kg PO,≤ 5 h
same,Non-REM and REM sleep during the period of continuous wakefulness,"[8]; 50-150 mg/kg PO, resting period",completely suppressed
same,Wake-promoting effects,"[8]; active (dark) period (ZT 14), 50-150 mg/kg PO",only small effects were observed
same,Spontaneous activity compared with amphetamine,[1]; 100 mg/kg SC vs 2 mg/kg amphetamine,suppressed activities more efficiently than amphetamine
same,"Spontaneous activity (locomotor, rearing, stereotypical activities)","[1]; 10, 30, 100 mg/kg SC, 90 min post-injection",selectively reduced activity of the KO mice in a dose-dependent manner; also recorded: reduced activities in a dose-dependent fashion
same,Duration of continuous wakefulness,"[9]; narcoleptic mice, 50 mg/kg PO",up to 3 hours
same,Duration of continuous wakefulness,"[9]; narcoleptic mice, 100 mg/kg PO",≤ 4 h
same,Duration of continuous wakefulness,"[9]; narcoleptic mice, 150 mg/kg PO",≤ 5 h
same,Non-REM and REM sleep during the period of continuous wakefulness,"[9]; narcoleptic mice, 50-150 mg/kg PO, resting period",completely suppressed
same,Wake-promoting effects,"[9]; narcoleptic mice, active (dark) period (ZT 14), 50-150 mg/kg PO",much pronounced wake-promoting effects
same,Wake amounts,"[9]; narcoleptic mice, active period, 100 and 150 mg/kg PO",brought up to the levels of wild-type mice
same,Amounts of non-REM and REM sleep,"[9]; narcoleptic mice, active period, PO",brought down to the levels of wild-type mice
same,EEG patterns after administration,"[9]; resting period, 50-150 mg/kg PO, genotypes not separated",no abnormal EEG patterns
same,Effect on REM sleep,[9]; [11],potently reduced REM sleep
same,Ki,[10],81.5 µM
same,Hill coefficient,"[10]; HEK-hSERT cells, mean ± SEM",−2.28 ± 0.05
"NC(=O)C[S+]([O-])C(c1ccccc1)c1ccccc1 (stereo not drawn) [modafinil, reference compound]",Wake amount versus wild-type baseline,"[9]; narcoleptic mice, active period, 200 mg/kg PO",did not bring the wake amount to that of the wild-type baseline levels
same,Wakefulness,"[9]; narcoleptic mice, active period, 50 and 200 mg/kg PO",dose-dependently increase wakefulness
same,Wake promoting effect compared with test compound,"[9]; resting period, 200 mg/kg PO, genotypes not separated",roughly corresponds to 50 mg/kg of test compound
same,Wake promoting effects,"[9]; resting period, 50 and 200 mg/kg PO, genotypes not separated",modest
same,Effect on REM sleep,[9]; [11],did not strongly reduce REM sleep

# Source: US8623913B2, “Methods for treating restless legs syndrome” (priority 2010, dated 2014)
